Results taken from US8524755B2 (priority 2009, dated 2013).

Tests used:
[1] = test system: Adrenergic α2 (ns); assay: Binding α2 (ns) (aa); set-up: species or system rat
Protocol: (§1) Radioligand binding assay methods utilized to measure the activity of compounds of the invention will be familiar to those skilled in the art. In each assay case, the assay components such as, for example, the cell-type, ligand, reference compound and the like, will be familiar to practitioners of such an assay.
(§2) Analysis and Expression of Results: Compounds of the invention were tested in the biochemical assays and percent inhibition of specific binding was determined. The specific ligand binding to the receptors is defined as the difference between the total binding and the nonspecific binding determined in the presence of an excess of unlabelled ligand. The results are expressed as a percent inhibition of control specific binding (100−((measured specific binding/control specific binding)×100)) obtained in the presence of test compounds.

[2] = biological target: T1, Histamine H1 (h) (Homo sapiens, UniProt P35367); assay: Binding H1 (h) (aa); conditions: read-out: % Inhibition of Control Specific Binding @ 10 μM
T1 construct: expressed in transfected cells; host or cells: HEK-293 cells
Protocol: as §1, §2

[3] = biological target: T2, CysLT1 (LTD4) (h) (Homo sapiens, UniProt Q9Y271); assay: Binding CysLT1 (LTD4) (ag); conditions: read-out: % Inhibition of Control Specific Binding @ 10 μM
T2 construct: expressed in transfected cells; host or cells: CHO cells
T2 sequence (Q9Y271 1-337): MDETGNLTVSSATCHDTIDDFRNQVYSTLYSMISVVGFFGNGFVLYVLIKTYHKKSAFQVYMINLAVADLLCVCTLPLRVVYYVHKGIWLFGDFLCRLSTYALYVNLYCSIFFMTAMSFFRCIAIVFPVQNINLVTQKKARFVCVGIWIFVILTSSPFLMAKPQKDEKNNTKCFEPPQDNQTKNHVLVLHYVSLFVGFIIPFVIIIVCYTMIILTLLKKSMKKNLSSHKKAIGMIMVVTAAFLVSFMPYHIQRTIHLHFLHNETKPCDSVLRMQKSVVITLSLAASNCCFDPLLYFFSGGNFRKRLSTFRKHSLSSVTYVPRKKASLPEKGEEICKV
Protocol: as §1, §2

[4] = test system: P2X; assay: Binding P2X (ag); set-up: species or system rat
Protocol: as §1, §2

[5] = test system: Ca^2+ channel (L, diltiazem site) (benzothiazepines); assay: Binding Ca2+ channel (L, diltiazem site) (aa); set-up: species or system rat
Protocol: as §1, §2

[6] = biological target: T3, dopamine transporter (h) (Homo sapiens, UniProt Q01959); assay: Binding dopamine transporter (h) (aa); conditions: read-out: % Inhibition of Control Specific Binding @ 10 μM
T3 construct: expressed in transfected cells; host or cells: CHO cells
Protocol: as §1, §2

[7] = test system: adenylyl cyclase (basal); assay: Enzyme assay adenylyl cyclase (basal); assay type: biochemical, rat
From the text: The enzyme assays provided below will be familiar to those skilled in the art.
Analysis and Expression of Results: The results are expressed as a percent of control specific activity ((measured specific activity/control specific activity)×100) obtained in the presence of the test compounds.

[8] = biological target: T4, human androgen receptor (Homo sapiens, UniProt P10275, T878A); assay: Human Androgen Receptor (AR) Binding; conditions: AR Binding Activity Ki (μM)
T4 construct: The human androgen receptor was expressed in LNCAP cells; endogenous in cells; host or cells: LNCaP cells (supernatant of homogenate)
T4 sequence (P10275 1-920 T878A): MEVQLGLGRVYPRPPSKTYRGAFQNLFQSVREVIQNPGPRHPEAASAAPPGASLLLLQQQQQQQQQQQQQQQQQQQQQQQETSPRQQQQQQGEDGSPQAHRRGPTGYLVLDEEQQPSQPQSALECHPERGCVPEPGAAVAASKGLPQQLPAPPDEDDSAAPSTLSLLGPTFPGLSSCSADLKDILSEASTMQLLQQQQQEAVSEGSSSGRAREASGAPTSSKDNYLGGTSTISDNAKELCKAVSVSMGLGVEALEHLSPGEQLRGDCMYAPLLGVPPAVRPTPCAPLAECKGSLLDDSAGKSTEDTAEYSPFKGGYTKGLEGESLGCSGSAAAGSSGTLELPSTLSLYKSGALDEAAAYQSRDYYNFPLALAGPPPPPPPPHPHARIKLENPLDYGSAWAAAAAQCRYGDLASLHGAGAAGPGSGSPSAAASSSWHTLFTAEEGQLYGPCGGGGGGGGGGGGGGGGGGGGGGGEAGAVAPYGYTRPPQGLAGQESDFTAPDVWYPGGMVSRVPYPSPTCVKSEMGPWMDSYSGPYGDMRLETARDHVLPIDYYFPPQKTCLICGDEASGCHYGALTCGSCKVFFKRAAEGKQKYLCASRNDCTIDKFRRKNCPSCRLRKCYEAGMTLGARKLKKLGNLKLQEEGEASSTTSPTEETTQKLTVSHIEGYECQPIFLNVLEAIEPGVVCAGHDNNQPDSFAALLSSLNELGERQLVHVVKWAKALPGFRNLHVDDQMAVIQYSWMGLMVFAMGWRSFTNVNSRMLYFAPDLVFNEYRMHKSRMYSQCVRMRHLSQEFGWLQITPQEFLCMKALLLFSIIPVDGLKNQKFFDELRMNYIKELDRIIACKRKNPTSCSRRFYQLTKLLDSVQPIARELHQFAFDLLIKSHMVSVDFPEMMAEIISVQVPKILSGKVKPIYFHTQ
Protocol: Tissue Preparation: The human androgen receptor was expressed in LNCAP cells which were cultured and harvested by trypsinization from T-175 flasks. The frozen pellet was thawed and resuspended by sonication, then diluted to the appropriate concentration. The homogenate was centrifuged @ 48,000 g for 10 min at 4° C. The supernatant was used. The protein was determined. The tissue was diluted to 0.325 mg/mL with assay buffer so that each tube received 65 μg of protein, or the final assay concentration was 0.260 mg/mL.
Buffers: 25 mM HEPES pH7.4; 1.0 mM EDTA; 10 mM sodium molybdate; 10% Glycerol; 0.5 mM PFSM (dissolved PMSF in EtOH first, before adding to remaining buffer).
Binding Reaction: (Liao, et al. “The Use of a Hydroxylapatite-Filter Steroid Receptor Assay Method in the Study of the Modulation of Androgen Receptor Interaction.” J. Steroid Biochem. (1984), 20:11-17 (with modifications)). […] The binding reaction was initiated with the addition of tissue, and was incubated at 0-4° C. (in refrigerator) for 18-22 h (overnight). The binding reaction was terminated by rapid filtration of the tube contents onto 0.1% PEI treated GF/B filters. The assay tubes were rinsed once with ice-cold […] HEPES, then rapidly rinsed with 6×1 mL/tube of the same wash buffer. Radioactivity trapped on the filters was assessed using liquid scintillation spectrophotometry after soaking the filers for at least 1 h in scintillation cocktail. […] Specific binding was calculated from the difference between the total and non-specific binding. IC50 values were determined by plotting specific binding as a function of test-compound concentration.

[9] = first column, Reference Compound Mibolerone
[10] = second column, Reference Compound Mibolerone
[11] = Reference Compound Methyltrienolone

T1 sequence (P35367 whole entry): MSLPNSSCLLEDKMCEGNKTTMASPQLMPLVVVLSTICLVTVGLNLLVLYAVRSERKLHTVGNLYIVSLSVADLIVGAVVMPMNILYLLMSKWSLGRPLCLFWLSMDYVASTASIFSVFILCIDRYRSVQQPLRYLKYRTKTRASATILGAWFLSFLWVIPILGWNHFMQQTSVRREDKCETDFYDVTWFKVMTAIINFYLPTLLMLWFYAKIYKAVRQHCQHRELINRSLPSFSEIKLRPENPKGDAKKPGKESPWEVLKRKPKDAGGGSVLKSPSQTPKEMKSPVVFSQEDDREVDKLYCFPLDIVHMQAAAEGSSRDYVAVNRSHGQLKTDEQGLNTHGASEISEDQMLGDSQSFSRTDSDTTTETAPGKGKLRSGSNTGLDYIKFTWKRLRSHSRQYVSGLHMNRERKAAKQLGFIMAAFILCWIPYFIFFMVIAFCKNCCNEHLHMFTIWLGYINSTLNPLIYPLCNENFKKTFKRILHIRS
T3 sequence (Q01959 whole entry): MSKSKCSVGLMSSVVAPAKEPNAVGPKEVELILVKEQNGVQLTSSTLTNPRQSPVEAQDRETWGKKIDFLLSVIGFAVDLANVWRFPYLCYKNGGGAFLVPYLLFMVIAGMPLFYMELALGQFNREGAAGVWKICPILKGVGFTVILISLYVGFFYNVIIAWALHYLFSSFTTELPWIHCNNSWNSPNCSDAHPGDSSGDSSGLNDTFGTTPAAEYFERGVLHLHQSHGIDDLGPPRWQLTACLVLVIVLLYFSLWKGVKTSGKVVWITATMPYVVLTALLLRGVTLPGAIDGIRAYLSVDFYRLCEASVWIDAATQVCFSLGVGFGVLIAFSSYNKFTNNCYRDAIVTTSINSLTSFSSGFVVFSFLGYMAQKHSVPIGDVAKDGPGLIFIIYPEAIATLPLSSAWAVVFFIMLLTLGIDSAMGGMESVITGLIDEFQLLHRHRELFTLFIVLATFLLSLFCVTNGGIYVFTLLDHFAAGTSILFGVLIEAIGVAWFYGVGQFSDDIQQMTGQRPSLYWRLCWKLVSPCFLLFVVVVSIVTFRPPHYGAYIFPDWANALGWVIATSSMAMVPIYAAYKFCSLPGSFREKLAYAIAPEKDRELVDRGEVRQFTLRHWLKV

Compound	% Inhibition of Control Specific Binding @ 10 μM [1] [%]	inhibition at 10 µM [2] [%]	inhibition at 10 µM [3] [%]	% Inhibition of Control Specific Binding @ 10 μM [4] [%]	% Inhibition of Control Specific Binding @ 10 μM [5] [%]	inhibition at 10 µM [6] [%]	% Stimulation Relative to Control @ 10 μM [7] [%]	Ki [8, 9] [µM]	Ki [8, 10] [µM]	Ki [8, 11] [µM]
CC1(C)C(=O)N(c2ccc(C#N)c(C(F)(F)F)c2)C(=O)N1c1ccc(C(N)=O)c(F)c1 [(MIII), 4-(3-(4-cyano-3-(trifluoromethyl)phenyl)-5,5-dimethyl-2,4-dioxoimidazolidin-1-yl)-2-fluorobenzamide]	−7	-2	11	2	−2	13	4	0.83	1.5	0.314
CC1(C)C(=O)N(c2ccc(C#N)c(C(F)(F)F)c2)C(=S)N1c1ccc(C(=O)O)c(F)c1 [(MI), 4-(3-(4-cyano-3-(trifluoromethyl)phenyl)-5,5-dimethyl-4-oxo-2-thioxoimidazolidin-1-yl)-2-fluorobenzoic acid]	−7	-8	3	4	2	32	0	–	–	> 10
CNC(=O)c1ccc(N2C(=O)N(c3ccc(C#N)c(C(F)(F)F)c3)C(=O)C2(C)C)cc1F [(MIV), 4-(3-(4-cyano-3-(trifluoromethyl)phenyl)-5,5-dimethyl-2,4-dioxoimidazolidin-1-yl)-2-fluoro-N-methylbenzamide]	−7	-11	11	2	1	7	11	0.69	0.97	0.361
CC1(C)C(=O)N(c2ccc(C#N)c(C(F)(F)F)c2)C(=S)N1c1ccc(C(N)=O)c(F)c1 [(MII), 4-(3-(4-Cyano-3-(trifluoromethyl)phenyl)-5,5-dimethyl-4-oxo-2-thioxoimidazolidin-1-yl)-2-fluorobenzamide]	−9	2	18	4	22	23	3	0.074	0.051	0.059
